Results from publication PMC13110267, “Fair and Square: Design, Synthesis and Biological Evaluations of Squaric Acid Derivatives as Novel HDAC8 Inhibitors” (Chemmedchem, 2026).

How the values were obtained:
[1] = molecular target: T1, HDAC8 (Homo sapiens, UniProt Q9BY41); test: HDAC8 fluorometric enzyme inhibition assay, purified recombinant enzyme, 10-point dose-response; type: biochemical; details: Table 1; purified recombinant HDAC8 10 nM; mean of three independent experiments; >35 µM = weak inhibitor
T1 construct: made in house
T1 sequence (Q9BY41 1-377): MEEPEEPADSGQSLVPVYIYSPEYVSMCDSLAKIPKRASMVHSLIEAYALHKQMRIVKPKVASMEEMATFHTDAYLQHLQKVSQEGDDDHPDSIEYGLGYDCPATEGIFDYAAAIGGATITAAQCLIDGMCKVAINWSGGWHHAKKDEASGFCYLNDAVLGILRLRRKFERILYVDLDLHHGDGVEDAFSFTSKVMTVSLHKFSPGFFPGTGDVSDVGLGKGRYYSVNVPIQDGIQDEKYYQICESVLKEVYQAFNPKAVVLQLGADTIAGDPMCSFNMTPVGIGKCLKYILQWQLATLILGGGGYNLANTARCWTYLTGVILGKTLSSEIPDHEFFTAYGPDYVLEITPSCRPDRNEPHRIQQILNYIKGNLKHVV
Description: (§1) Therefore, the first stage of biological evaluation focused on determining inhibitory concentration (IC50) values of the squaric acid derivatives against HDAC8 and HDAC4 using purified recombinant enzymes. Enzymatic inhibition was quantified using 10‐point dose–response assays, from which IC50 values were calculated (Table 1). HDAC8 and HDAC4 were employed at concentrations of 10 nM and 1 nM, respectively, while other zinc‐dependent HDAC isoenzymes were used at approximate concentrations of ∼1 nM, reflecting the purity of the commercially available preparations. […]
(§2) 1.3.1 HDAC Assay General Inform ation
(§3) The activity of HDAC1, HDAC4, HDAC6, HDAC8, and HDAC11 was determined using a fluorometric assay in black half-area 96-well microplates (Greiner Bio -One , Germany). HDAC1 (#50051) and HDAC 6 (#50006) were purchased from BPS Bioscience.
(§4) HDAC4, HDAC8 and HDAC11 were produced in house as previously described.7- 9 The enzymes were pre-incubated with serial dilutions of the compounds for 1 hour at 30 °C in either assay buffer (25 mM Tris-HCl, 75 mM KCl and 0.001% (v/v) Pluronic F -127, pH 8.0) or MAL buffer (137 m M NaCl, 50 mM Tris-HCl, 2.7 mM KCl, 1 mM MgCl₂, 0 .5 mg/ml bovine serum albumin (BSA), pH 8.0b) for HDAC11. The enzyme reaction was initiated by the addition of the following substrates: 20 µM Boc-L ys(T FA) -AMC for HDAC4 and HDAC8; 80 µM Boc-L ys(T FA) -AMC for HDAC11; and 50 µM Boc -Lys(Ac)-AMC for HDAC1 and HDAC6. After an incubation period of 60 minutes, the reaction was terminated by the addition of 1.7 µM 9,9,9-trifluoro-8-oxo-N -phenyl -nonanamide (SATFMK) for […]
(§5) HDAC6, and 1 µM 1,1-dimethyl -2-[5-(trifluoromethyl)pyrazin-2-yl]isoindoline -4-carbohydroxamic acid (FT895) for HDAC11. The deacetylated substrate was then cleaved into fluorescent 7-amino -4- methylcoumarin (AMC) by the addition of 0.42 mg/mL trypsin.
(§6) Measurements were performed using a PHERAstar FS fluorescence microplate reader (BMG LABTECH) with excitation at 360 nm and emission at 460 nm. The normalised enzyme activities were plotted against the respective ligand concentration and fitted with a four-parameter logistic function using GraphPad Prism 6 software.

[2] = molecular target: T2, HDAC4 (Homo sapiens, UniProt P56524); test: HDAC4 fluorometric enzyme inhibition assay, purified recombinant enzyme, 10-point dose-response; type: biochemical; details: Table 1; purified recombinant HDAC4 1 nM; mean of three independent experiments; >35 µM = weak inhibitor
T2 construct: made in house
Description: as §1, §2, §3, §4, §5, §6

T2 sequence (P56524 whole entry): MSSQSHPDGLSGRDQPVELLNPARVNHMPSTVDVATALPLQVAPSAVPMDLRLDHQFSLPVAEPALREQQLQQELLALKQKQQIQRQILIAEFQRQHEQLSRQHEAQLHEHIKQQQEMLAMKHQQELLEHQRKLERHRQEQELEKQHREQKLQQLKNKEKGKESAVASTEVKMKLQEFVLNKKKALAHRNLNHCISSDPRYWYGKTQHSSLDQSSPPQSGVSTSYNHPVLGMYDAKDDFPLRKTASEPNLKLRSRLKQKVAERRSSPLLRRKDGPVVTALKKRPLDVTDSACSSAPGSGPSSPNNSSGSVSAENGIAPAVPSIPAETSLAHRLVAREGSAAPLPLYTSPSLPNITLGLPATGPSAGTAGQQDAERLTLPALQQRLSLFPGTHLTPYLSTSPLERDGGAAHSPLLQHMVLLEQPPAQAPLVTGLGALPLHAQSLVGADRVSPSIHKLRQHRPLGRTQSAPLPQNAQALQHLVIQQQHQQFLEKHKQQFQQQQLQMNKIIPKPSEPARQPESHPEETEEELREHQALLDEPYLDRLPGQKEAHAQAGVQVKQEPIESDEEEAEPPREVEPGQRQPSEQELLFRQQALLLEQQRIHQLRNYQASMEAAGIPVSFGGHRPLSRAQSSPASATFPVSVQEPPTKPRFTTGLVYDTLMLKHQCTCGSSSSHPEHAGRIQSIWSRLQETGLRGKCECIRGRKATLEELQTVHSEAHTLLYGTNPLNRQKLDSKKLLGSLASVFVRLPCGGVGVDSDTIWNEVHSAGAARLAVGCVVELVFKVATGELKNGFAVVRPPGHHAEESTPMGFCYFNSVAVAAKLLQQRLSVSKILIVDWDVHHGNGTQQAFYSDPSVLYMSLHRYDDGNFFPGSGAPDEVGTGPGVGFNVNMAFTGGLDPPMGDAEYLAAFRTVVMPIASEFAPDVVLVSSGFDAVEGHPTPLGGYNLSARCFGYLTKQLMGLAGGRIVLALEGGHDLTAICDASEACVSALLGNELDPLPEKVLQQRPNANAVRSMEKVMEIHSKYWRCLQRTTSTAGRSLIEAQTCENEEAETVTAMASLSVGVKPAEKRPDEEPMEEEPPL

IC50 [1] [µM]	IC50 [2] [µM]	Compound
> 35	> 35	CCOc1c(Nc2cccc(O)c2)c(=O)c1=O [9 h]
> 35	> 35	CCOc1c(N(C)Cc2ccc(Br)cc2)c(=O)c1=O [10 h]
> 35	> 35	CCOc1c(N2CCS(=O)(=O)CC2)c(=O)c1=O [12 h]
> 35	> 35	CCOc1c(Nc2ccccc2)c(=O)c1=O [Compound 9a]
> 35	> 35	CCOc1c(Nc2cccc(Cl)c2)c(=O)c1=O [Compound 9c]
> 35	> 35	CCOc1c(Nc2ccc(Cl)cc2)c(=O)c1=O [Compound 9d]
> 35	> 35	CCOc1c(Nc2cccc(Br)c2)c(=O)c1=O [Compound 9e]
> 35	> 35	CCOc1c(Nc2ccc(Br)cc2)c(=O)c1=O [Compound 9f]
> 35	> 35	CCOc1c(Nc2ccccc2O)c(=O)c1=O [Compound 9g]
> 35	> 35	CCOc1c(Nc2ccc(O)cc2)c(=O)c1=O [Compound 9i]
> 35	> 35	CCOc1c(Nc2ccccc2OC)c(=O)c1=O [Compound 9j]
> 35	> 35	CCOc1c(Nc2cccc(OC)c2)c(=O)c1=O [Compound 9k]
> 35	> 35	CCOc1c(Nc2ccc(OC)cc2)c(=O)c1=O [Compound 9l]
> 35	> 35	CCOc1c(Nc2cccc(C(F)(F)F)c2)c(=O)c1=O [Compound 9m]
> 35	> 35	CCOc1c(Nc2ccc(C(F)(F)F)cc2)c(=O)c1=O [Compound 9n]
> 35	> 35	CCOc1c(Nc2ccccc2C)c(=O)c1=O [Compound 9o]
> 35	> 35	CCOc1c(Nc2cccc(C)c2)c(=O)c1=O [Compound 9p]
> 35	> 35	CCOc1c(Nc2ccc(C)cc2)c(=O)c1=O [Compound 9q]
> 35	> 35	CCOc1c(Nc2cccc(C(=O)O)c2)c(=O)c1=O [Compound 9r]
> 35	> 35	CCOc1c(N(C)c2ccc(Br)cc2)c(=O)c1=O [Compound 9s]
> 35	> 35	CCOc1c(NCc2ccccc2)c(=O)c1=O [Compound 10a]
> 35	> 35	CCOc1c(NCc2ccccc2Cl)c(=O)c1=O [Compound 10b]
> 35	> 35	CCOc1c(NCc2cccc(Cl)c2)c(=O)c1=O [Compound 10c]

IC50 [1] [µM]	IC50 [2] [µM]	Compound
> 35	> 35	CCOc1c(NCc2ccc(Cl)cc2)c(=O)c1=O [Compound 10d]
> 35	> 35	CCOc1c(NCc2ccccc2Br)c(=O)c1=O [Compound 10e]
> 35	> 35	CCOc1c(NCc2cccc(Br)c2)c(=O)c1=O [Compound 10f]
> 35	> 35	CCOc1c(NCc2ccc(Br)cc2)c(=O)c1=O [Compound 10g]
> 35	> 35	CCOc1c(N(C(C)C)C(C)C)c(=O)c1=O [Compound 11]
> 35	> 35	CCOc1c(N2CCC2)c(=O)c1=O [Compound 12a]
> 35	> 35	CCOc1c(N2CCCC2)c(=O)c1=O [Compound 12b]
> 35	> 35	CCOc1c(N2CCCCC2)c(=O)c1=O [Compound 12c]
> 35	> 35	CCOc1c(N2CCCCCC2)c(=O)c1=O [Compound 12d]
> 35	> 35	CCOc1c(N2CCOCC2)c(=O)c1=O [Compound 12e]
> 35	> 35	CCOc1c(N2C[C@@H](C)O[C@@H](C)C2)c(=O)c1=O [Compound 12f]
> 35	> 35	CCOc1c(N2CCSCC2)c(=O)c1=O [Compound 12g]
> 35	> 35	CCOc1c(N2CCSC2)c(=O)c1=O [Compound 12i]
> 35	> 35	CCOc1c(N2CCN(C(=O)OC(C)(C)C)CC2)c(=O)c1=O [Compound 12j]
> 35	> 35	CCOc1c(N2CCCc3ccc(Br)cc32)c(=O)c1=O [Compound 12k]
> 35	14 ± 2	O=c1c(Nc2ccccc2)c(Nc2ccccc2)c1=O [Compound 13a]
> 35	> 35	CN(c1ccccc1)c1c(N(C)c2ccccc2)c(=O)c1=O [Compound 14a]
> 35	> 35	CN(c1ccc(Br)cc1)c1c(N(C)c2ccc(Br)cc2)c(=O)c1=O [Compound 14c]
> 35	> 35	O=c1c(N(Cc2ccccc2)c2ccc(Br)cc2)c(N(Cc2ccccc2)c2ccc(Br)cc2)c1=O [Compound 15]
> 35	> 35	O=c1c(N2CCOCC2)c(N2CCOCC2)c1=O [Compound 16a]
> 35	> 35	O=c1c(N2CCCCC2)c(N2CCCCC2)c1=O [Compound 16b]
> 35	> 35	CC(C)N1CCN(C(C)C)c2c1c(=O)c2=O [Compound 17a]
> 35	> 35	CN1CCCN(C)c2c1c(=O)c2=O [Compound 17b]
